Results taken from ChEMBL document CHEMBL1138590, “Discovery of novel dihydro-9,10-ethano-anthracene carboxamides as glucocorticoid receptor modulators” (Bioorg Med Chem Lett, 2009).

Tests used:
Glucocorticoid receptor [1] = biological target: T1, Glucocorticoid receptor (Homo sapiens, UniProt P04150); assay: Transrepression activity at GR in PMA-stimulated human A549 cells assessed as inhibition of AP1 response element-induced luciferase reporter gene activity; type: cell-based
T1 sequence (P04150 whole entry): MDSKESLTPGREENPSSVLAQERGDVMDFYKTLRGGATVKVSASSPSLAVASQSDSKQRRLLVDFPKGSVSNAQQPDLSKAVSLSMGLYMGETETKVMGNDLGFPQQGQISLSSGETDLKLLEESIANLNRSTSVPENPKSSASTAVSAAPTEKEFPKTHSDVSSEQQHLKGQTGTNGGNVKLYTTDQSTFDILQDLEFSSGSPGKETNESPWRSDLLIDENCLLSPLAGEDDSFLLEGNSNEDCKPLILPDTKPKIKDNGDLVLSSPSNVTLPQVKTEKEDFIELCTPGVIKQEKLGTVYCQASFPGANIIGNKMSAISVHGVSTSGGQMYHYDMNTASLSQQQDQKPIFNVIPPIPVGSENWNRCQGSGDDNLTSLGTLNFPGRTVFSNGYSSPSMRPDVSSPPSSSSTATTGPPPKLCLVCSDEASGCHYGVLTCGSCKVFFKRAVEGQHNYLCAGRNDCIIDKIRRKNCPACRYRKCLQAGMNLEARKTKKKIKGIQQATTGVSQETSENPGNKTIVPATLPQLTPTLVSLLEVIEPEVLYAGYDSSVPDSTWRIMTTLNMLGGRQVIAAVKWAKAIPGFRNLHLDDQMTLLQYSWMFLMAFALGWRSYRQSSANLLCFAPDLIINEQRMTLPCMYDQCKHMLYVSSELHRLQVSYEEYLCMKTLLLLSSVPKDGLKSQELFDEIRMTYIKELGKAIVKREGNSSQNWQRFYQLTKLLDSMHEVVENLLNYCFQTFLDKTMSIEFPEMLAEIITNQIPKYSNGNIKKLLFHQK

Glucocorticoid receptor [2] = biological target: T1, Glucocorticoid receptor; assay: Displacement of FITC-dexamethasone from human recombinant glucocorticoid receptor alpha by fluorescence polarization assay
Glucocorticoid receptor [3] = biological target: T1, Glucocorticoid receptor; assay: Transrepression activity at GR in IL-1-beta-stimulated human A549 cells assessed as inhibition of NF-kappaB-dependent E-selectin transcription by luciferase reporter gene assay; type: cell-based
Glucocorticoid receptor [4] = biological target: T1, Glucocorticoid receptor; assay: Agonist activity at GR ligand binding domain expressed in human NP1 cells assessed as glucocorticoid response element transactivation by GAL4 luciferase reporter gene assay; type: cell-based
[5] = biological target: T2, Mineralocorticoid receptor (Homo sapiens) (UniProt P08235); assay: Antagonist activity at mineralocorticoid receptor in human A549 cells assessed as inhibition of 1.25 nM aldosterone-induced effect at 0.1 uM; type: functional, cell-based
T2 sequence (whole entry): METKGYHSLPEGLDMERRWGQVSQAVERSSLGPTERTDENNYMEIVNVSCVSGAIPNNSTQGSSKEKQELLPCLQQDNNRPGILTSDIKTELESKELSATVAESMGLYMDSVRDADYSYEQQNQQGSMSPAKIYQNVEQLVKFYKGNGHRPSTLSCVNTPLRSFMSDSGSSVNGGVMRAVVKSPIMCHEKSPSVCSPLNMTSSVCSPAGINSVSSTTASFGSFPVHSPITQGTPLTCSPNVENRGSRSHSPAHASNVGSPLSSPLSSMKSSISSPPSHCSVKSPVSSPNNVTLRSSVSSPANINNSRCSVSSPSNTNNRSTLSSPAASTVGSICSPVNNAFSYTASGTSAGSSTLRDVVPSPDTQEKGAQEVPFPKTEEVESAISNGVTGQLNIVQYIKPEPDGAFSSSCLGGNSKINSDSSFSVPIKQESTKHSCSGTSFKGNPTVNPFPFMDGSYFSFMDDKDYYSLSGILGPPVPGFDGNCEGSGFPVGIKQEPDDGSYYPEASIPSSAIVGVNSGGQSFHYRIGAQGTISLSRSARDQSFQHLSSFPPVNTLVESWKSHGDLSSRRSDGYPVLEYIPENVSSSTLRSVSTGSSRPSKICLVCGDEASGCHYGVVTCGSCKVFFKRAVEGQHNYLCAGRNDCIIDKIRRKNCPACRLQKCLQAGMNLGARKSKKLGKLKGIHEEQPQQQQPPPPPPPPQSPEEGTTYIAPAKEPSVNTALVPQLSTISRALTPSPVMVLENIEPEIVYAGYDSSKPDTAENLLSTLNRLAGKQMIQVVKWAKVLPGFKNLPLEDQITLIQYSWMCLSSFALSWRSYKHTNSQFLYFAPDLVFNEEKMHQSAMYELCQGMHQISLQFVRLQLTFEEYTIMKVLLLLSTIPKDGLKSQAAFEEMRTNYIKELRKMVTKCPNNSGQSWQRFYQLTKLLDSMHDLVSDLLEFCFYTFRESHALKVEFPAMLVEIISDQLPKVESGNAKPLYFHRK

Row | EC50 (Glucocorticoid receptor [1]) [nM] | Ki (Glucocorticoid receptor [2]) [nM] | EC50 (Glucocorticoid receptor [3]) [nM] | EC50 (Glucocorticoid receptor [4]) [nM] | Structure (SMILES) | inhibition [5] [%]
1 | 972 | 187 | – | – | Cc1cnc(NC(=O)C2(C)CC3c4ccccc4C2c2ccccc23)s1 (single isomer, unassigned; isomer B) | –
2 | 1240 | 82.5 | – | – | CN(C(=O)C1(C)CC2c3ccccc3C1c1ccccc12)c1nccs1 (stereo not given) | –
3 | 544 | 26.2 | – | – | C[C@]1(C(=O)Nc2nccs2)CC2c3ccccc3C1c1ccccc12 | –
4 | > 5000 | 8.7 | – | – | Cc1csc(NC(=O)C2(C)CC3c4ccccc4C2c2ccccc23)n1 (stereo not given) | –
5 | > 2500 | 3.9 | – | – | CCC1(C(=O)Nc2nccs2)CC2c3ccccc3C1c1ccccc12 (stereo not given) | –
6 | 923 | 22.6 | – | – | Cc1nc(NC(=O)C2(C)CC3c4ccccc4C2c2ccccc23)sc1C (stereo not given) | –
7 | 1070 | – | > 5000 | > 10000 | CC1(C(=O)Nc2nccs2)CC2([N+](=O)[O-])c3ccccc3C1c1ccccc12 (stereo not given) | –
8 | > 5000 | 158 | – | – | CC1(C(=O)Nc2ccc([N+](=O)[O-])cc2O)CC2c3ccccc3C1c1ccccc12 (stereo not given) | –
9 | – | – | – | – | CC12CC(C)(C(=O)Nc3nccs3)C(c3ccccc31)c1ccccc12 (stereo in doubt; 17a) | 49
10 | – | – | – | – | CC12CC(C)(C(=O)Nc3nncs3)C(c3ccccc31)c1ccccc12 (single isomer, unassigned; isomer A) | 53
11 | 229 | – | 12.3 | 322 | CC1(C(=O)Nc2nccs2)CC2(Cl)c3ccccc3C1c1ccccc12 (stereo not given) | –
12 | 610 | 12.7 | – | – | Cc1cnc(NC(=O)C2(C)CC3c4ccccc4C2c2ccccc23)s1 (stereo in doubt; 3) | –
13 | 14.7 | – | 8.3 | 121 | CC12CC(C)(C(=O)Nc3nccs3)C(c3ccccc31)c1ccccc12 (stereo in doubt; 17) | –
14 | > 5000 | 303 | – | – | O=C(Nc1nccs1)C1(CCO)CC2c3ccccc3C1c1ccccc12 (stereo not given) | –
15 | 874 | – | 678 | > 10000 | CC1(C(=O)Nc2nccs2)CC2c3ccccc3C1(C#N)c1ccccc12 (stereo not given) | –
16 | 1160 | – | > 5000 | > 10000 | CC1(C(=O)Nc2nccs2)CC2c3ccccc3C1([N+](=O)[O-])c1ccccc12 (stereo not given) | –
17 | 119 | – | 9.9 | 175 | CC1(C(=O)Nc2nccs2)CC2(Br)c3ccccc3C1c1ccccc12 (stereo not given) | –
18 | 800 | 67.8 | > 5000 | > 10000 | CC12CC(C)(C(=O)Nc3nccs3)C(c3ccccc31)c1ccccc12 (single isomer, unassigned; isomer B) | –
19 | 295 | 5.4 | – | – | CC1(C(=O)Nc2nncs2)CC2c3ccccc3C1c1ccccc12 (stereo not given) | –

Row | Structure (SMILES) | EC50 (Glucocorticoid receptor [1]) [nM] | Ki (Glucocorticoid receptor [2]) [nM] | EC50 (Glucocorticoid receptor [3]) [nM] | EC50 (Glucocorticoid receptor [4]) [nM] | inhibition [5] [%]
20 | CC1(C(=O)Nc2ncc[nH]2)CC2c3ccccc3C1c1ccccc12 (stereo not given) | > 5000 | 92.6 | – | – | –
21 | CC1(C(=O)Nc2nccs2)CC2(C#N)c3ccccc3C1c1ccccc12 (stereo not given) | 331 | – | 426 | > 10000 | –
22 | CC12CC(C)(C(=O)Nc3nncs3)C(c3ccccc31)c1ccccc12 (stereo in doubt; 18) | 16.9 | – | 5.2 | > 10000 | –
23 | CC12CC(C)(C(=O)Nc3nncs3)C(c3ccccc31)c1ccccc12 (stereo in doubt; 18b) | 3830 | 49.7 | 152 | > 2500 | –
24 | C[C@]1(C(=O)Nc2nccs2)CC2(C#N)c3ccccc3C1c1ccccc12 | 837 | 37.8 | > 5000 | > 10000 | –
